Values quoted from earlier work in patent US20100210573A1, “COMPOUND AND COMPOSITIONS FOR TREATMENT OF DISEASE” (Citrox Limited, priority 2008, published 2010).

Tests used:
[1] = system: Trypanosoma brucei gambiense; details: cell cultures; Antimicrobial Agents and Chemother. 48, 2004
[2] = system: Leishmania donovani promastigotes and amastigotes; details: in vitro; Mittra et al., Molecular Medicine 6, 2000

O=c1c(O)c(-c2ccc(O)c(O)c2)oc2cc(O)cc(O)c12 [Quercetin]
apoptosis of Trypanosoma brucei gambiense [1]: induce apoptosis
growth of Leishmania donovani promastigotes and amastigotes [2]: inhibit the growth

O=c1cc(-c2ccc(O)c(O)c2)oc2cc(O)cc(O)c12 [Luteolin]
growth of Leishmania donovani promastigotes and amastigotes [2]: inhibit the growth
